Laboratory results reported in patent US8884027B2, “Melampomagnolide B derivatives as antileukemic and cytotoxic agents” (University of Rochester, priority 2010, dated 2014).
Entries after “also recorded” stand apart in the source; their conditions may differ. One block for each compound: values may come before it.

How the values were obtained:
[1] = cited from earlier work
[2] = cited from earlier work; remark: listed apart in the source
[3] = rats and dogs, cited from earlier work
[4] = system: NF-κB p65 subunit at Ser-536; test: Inhibition of NF-κB activity: immunoblot of phosphorylated p65 in primary leukemia cells; assay type: cell-based, human; conditions: primary leukemia cells treated six hours, FIG. 3A
Method: (§1) Primary leukemia cells were treated with varying concentrations of 1, 3 or 4 for six hours, followed by lysis and analysis by immunoblot. Inhibition of NF-κB activity was assessed by measuring phosphorylation of the NF-κB p65 subunit at Ser-536. […] To further evaluate the cytoxicity of 3 and 4, cell viability was measured following 24 h exposure to each compound. […] To achieve a similar degree of cell death with 4, treatment at 20-30 μM was required, in good agreement with the NF-κB phosphorylation analysis shown in FIG. 3A. Thus, while 3 and 4 retain the biological properties of 1, the activity of 4 is reduced approximately 2-fold. The minor loss in activity might be attributed to steric hindrance resulting from the addition of the bulky biotin moiety.
Cell lysates or pull-down products were diluted in 5×SDS-PAGE sample buffer (10% w/v SDS, 10 mM DDT, 20% glycerol, 0.2M Tris-HCl, pH 6.8, 0.05% w/v bromophenol blue), and run on 8-10% SDSPAGE gels. Protein gels were then transferred to PVDF membrane and blocked with 5% milk in 0.1% TBST (20 mM Tris-HCl pH 7.5, 137 mM NaCl, 0.1% Tween 20), followed by incubation with antibodies against p-p65(ser 536) (Cell Signaling), IKK-β (Cell Signaling), p65 (Santa Cruz), β-actin (Sigma), or SA-HRP probe (Thermo).

primary leukemia cells = test: Cell viability assay (Annexin V/7-AAD flow cytometry); assay type: cell-based, human; conditions: for concentration achieving efficient induction of cell death: 24 h exposure, FIG. 3B; for anti-leukemia activity compared to PTL (in words): primary AML specimens, FIG. 2
Method: as §1
Cells treated with different concentrations of 1, 3 or 4 were washed with cold PBS and resuspended in 200 μL of Annexin binding buffer (10 mM HEPES/NaOH pH 7.4; 140 mM NaCl; 2.5 mM CaCl2). Annexin-V and 7-amino-actinomycin (7-AAD) were added and the tubes were incubated at ambient temperature in the dark for 15 mins. Cells were then diluted with 200 μL of Annexin binding buffer and analyzed immediately by flow cytometry. Viable cells were scored as Annexin V negative/7-AAD negative. Percent viability data provided are normalized to untreated control specimens.

Water solubility = assay type: physicochemical
Method: Detailed SAR studies of PTL were performed to better understand the basic chemistry required to mediate anti-leukemia activity. […] In biological systems, the consequences of this reactivity are most prevalent for free thiols and cysteine residues. […] A series of PTL analogs was previously prepared with the goal of creating a more therapeutically useful derivative (Neelakantan et al., 2009). […] In addition, DMAPT retains virtually identical anti-leukemia properties as PTL, including the ability to selectively target LSCs. […] Based on these findings, DMAPT has advanced to phase 1 clinical trials, and is currently being evaluated in patients with advanced hematologic malignancies. DMAPT and certain PTL analogs are disclosed in U.S. Pat. Nos. 7,312,242 and 7,678,904, each of which is incorporated herein by reference.
The predicted poor oral bioavailability likely results from low aqueous solubility, since this causes a low dissolution-rate, which is often the rate-limit step during oral drug absorption. Fleisher et al., Improved oral drug delivery: solubility limitations overcome by the use of prodrugs. Adv Drug Deliv Rev, 19:115-130, 1996; Taylor, Improved passive oral drug delivery via prodrugs. Adv Drug Deliv Rev, 19:131-148, 1996. Furthermore, low water solubility can itself be a source of toxicity, due to precipitation of the drug, causing crystalluria. […]

IKK-β = molecular target: T1, IKK-β (Homo sapiens, UniProt O14920); test: Streptavidin beads pull-down assay with immunoblot; assay type: binding
T1 construct: endogenous in cells; host or cells: primary leukemia (AML) cells
T1 sequence (O14920 1-756): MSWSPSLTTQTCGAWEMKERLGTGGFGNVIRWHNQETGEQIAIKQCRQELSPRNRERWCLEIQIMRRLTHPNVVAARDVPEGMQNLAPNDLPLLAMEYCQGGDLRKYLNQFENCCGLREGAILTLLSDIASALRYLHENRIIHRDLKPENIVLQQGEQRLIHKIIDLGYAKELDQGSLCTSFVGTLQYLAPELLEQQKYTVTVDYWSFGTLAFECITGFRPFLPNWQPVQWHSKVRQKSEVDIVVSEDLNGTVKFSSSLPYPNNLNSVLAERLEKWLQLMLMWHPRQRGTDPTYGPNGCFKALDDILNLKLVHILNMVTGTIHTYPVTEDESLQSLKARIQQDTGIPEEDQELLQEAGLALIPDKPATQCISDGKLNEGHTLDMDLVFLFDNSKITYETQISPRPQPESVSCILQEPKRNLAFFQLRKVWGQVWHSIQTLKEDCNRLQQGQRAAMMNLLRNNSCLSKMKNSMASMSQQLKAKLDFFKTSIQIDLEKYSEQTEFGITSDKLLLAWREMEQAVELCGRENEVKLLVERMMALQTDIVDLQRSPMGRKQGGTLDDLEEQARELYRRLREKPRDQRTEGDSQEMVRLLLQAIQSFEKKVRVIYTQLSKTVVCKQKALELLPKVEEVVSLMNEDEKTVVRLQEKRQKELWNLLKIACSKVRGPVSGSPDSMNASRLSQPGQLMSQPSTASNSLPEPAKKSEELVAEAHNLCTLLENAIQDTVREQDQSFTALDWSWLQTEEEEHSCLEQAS
Method: Subsequent studies employed 4 as a reagent to identify potential leukemic proteins modified by MMB. Primary human cells were treated with 20 uM 4 for 6 h, followed by lysis and immunoblot analysis using a streptavidin probe. […] Thus, while the chemistry of 4 should be essentially the same in any cell type, there must be intrinsic differences between normal and leukemic cells that lead to the interaction with unique targets. We propose that this differential binding contributes to the leukemia-specific cell death previously described for 1. To further validate the utility of 4 for analysis of protein targets, we performed biochemical pulldown studies. […] Kwok et al. Chem. Bio., 2001, 8, 759. Therefore, we tested whether 4 would also bind this protein. In FIG. 5, primary leukemia cells were pretreated for 2 h with 1 (lanes 2, 5) or biotin control (b.c.) (lanes 3, 6), prior to a 4 h incubation with 4. Cells were then lysed and immuno-precipitated by streptavidin beads. Pulldown products were analyzed by immunoblot to identify specific proteins. […] Kwok et al., Chem. Bio., 2001, 8, 759; Hehner et al., J. Immunol. 1999, 163, 5617.
Treated cells were washed three times in cold PBS and lysed in Buffer F (10 mM Tris-HCl pH 7.5, 50 mM NaCl, 30 mM Sodium pyrophosphate, 50 mM NaF, 5 μM ZnCl2, 1% Triton X-100) with freshly added proteinase inhibitors (1 mM PMSF, 1×PIC, 0.1 mM Na3OV4). […]

NF-kB p65 subunit = molecular target: T2, NF-kB p65 subunit (Homo sapiens, UniProt Q04206); test: Streptavidin beads pull-down assay with immunoblot; assay type: binding; conditions: 2 h pretreatment before 4; FIG. 5 lane 5
T2 construct: endogenous in cells; host or cells: primary leukemia (AML) cells
Method: Primary human cells were treated with 20 uM 4 for 6 h, followed by lysis and immunoblot analysis using a streptavidin probe. […] Therefore, we tested whether 4 would also bind this protein. […] Cells were then lysed and immuno-precipitated by streptavidin beads. Pulldown products were analyzed by immunoblot to identify specific proteins.
Treated cells were washed three times in cold PBS and lysed in Buffer F (10 mM Tris-HCl pH 7.5, 50 mM NaCl, 30 mM Sodium pyrophosphate, 50 mM NaF, 5 μM ZnCl2, 1% Triton X-100) with freshly added proteinase inhibitors (1 mM PMSF, 1×PIC, 0.1 mM Na3OV4). Lysates were cleared by 10 mins of 12,000 rpm spinning at 4° C. and the supernatant was incubated with SA beads for 2 hours on an end-to-end rotor at 4° C. Beads were then washed sequentially with 1×PBS, high salt wash buffer (500 mM NaCl in 0.1 M pH 5.0 NaOAc), low pH wash buffer (0.1 M pH 2.8 glycine-HCl), and one last time in 1×PBS. After the wash steps, the SA beads were boiled for 10 mins in 2×SDS-PAGE sample buffer to elute down all pull-down products.
Cell lysates or pull-down products were diluted in 5×SDS-PAGE sample buffer (10% w/v SDS, 10 mM DDT, 20% glycerol, 0.2M Tris-HCl, pH 6.8, 0.05% w/v bromophenol blue), and run on 8-10% SDSPAGE gels. […]

glutathione = test: Metabolomic studies of glutathione; assay type: cell-based
Source text: For example, both thioredoxin and glutathione-S-transferase are targets of MMB. […] Furthermore, MMB also directly binds the major components of the HSP family (HSP60, 70, and 90). […] If true, then MMB could also impair the function of one or more HSPs. Taken together with the genomic data, these findings indicate a unique mechanism of action, where agents of this class act by inducing multiple stress response mechanisms and simultaneously impairing those very same mechanisms from functioning properly.

T2 sequence (Q04206 whole entry): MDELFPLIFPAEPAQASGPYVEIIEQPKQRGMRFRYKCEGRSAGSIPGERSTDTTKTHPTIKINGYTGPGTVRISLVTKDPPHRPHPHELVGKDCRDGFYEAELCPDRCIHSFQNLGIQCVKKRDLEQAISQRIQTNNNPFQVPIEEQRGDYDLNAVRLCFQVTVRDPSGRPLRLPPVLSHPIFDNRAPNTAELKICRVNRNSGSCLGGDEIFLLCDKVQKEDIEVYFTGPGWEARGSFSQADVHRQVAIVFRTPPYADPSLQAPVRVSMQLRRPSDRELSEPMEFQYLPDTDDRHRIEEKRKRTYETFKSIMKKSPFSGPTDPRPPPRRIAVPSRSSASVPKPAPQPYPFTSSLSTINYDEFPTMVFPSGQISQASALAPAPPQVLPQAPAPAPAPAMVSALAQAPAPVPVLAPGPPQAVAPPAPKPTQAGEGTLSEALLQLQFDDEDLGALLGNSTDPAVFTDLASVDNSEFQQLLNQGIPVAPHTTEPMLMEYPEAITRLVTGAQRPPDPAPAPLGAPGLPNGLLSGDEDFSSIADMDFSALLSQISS

SMILES: C/C1=C\CC[C@@]2(C)O[C@@H]2[C@H]2OC(=O)[C@H](CN(C)C)[C@@H]2CC1 [DMAPT, dimethylaminoparthenolide]
water solubility relative to PTL ([1]; formulated as a fumarate salt): ~1000 fold | in vivo half-life [2]: approximately two | oral bioavailability [3]: 70% | tolerability ([3]; doses resulting in serum concentrations of up to 10-fold excess of the biologically active concentration): well tolerated

SMILES: C=C1C(=O)O[C@@H]2[C@H]3O[C@]3(C)CC/C=C(\CO)CC[C@@H]12 [MMB, Melampomagnolide B]
concentration at which a significant loss of phosphorylation of NF-κB p65 is observed [4]: 7.5 µM | concentration achieving efficient induction of cell death (primary leukemia cells): 7.5 µM | anti-leukemia activity compared to PTL (in words) (primary leukemia cells): indistinguishable from PTL; also recorded: identical anti-leukemia activity compared to PTL | anti-leukemia activity compared to PTL (in words) (primary leukemia cells; listed as 3): potency and selectivity similar to 1 | solubility in aqueous media (in words) (Water solubility): sparingly soluble

effect of preincubation on binding of IKK-β to 4 (IKK-β; 2 h pretreatment before 4, FIG. 5 lane 5): potently reduced binding | effect of preincubation on binding of p65 to 4 (NF-kB p65 subunit): potently reduced binding
SMILES: C=C1C(=O)O[C@H]2[C@H]1CC/C(C)=C/CC[C@@]1(C)O[C@@H]21 [PTL, parthenolide]
reduction of glutathione (glutathione): 11.2 fold | water solubility (in words) [1]: relatively water-insoluble

SMILES: C=C1C(=O)O[C@@H]2[C@H]3O[C@]3(C)CC/C=C(\COC(=O)CCCCCCCCCCCNC(=O)CCCC[C@@H]3SC[C@@H]4NC(=O)N[C@@H]43)CC[C@@H]12 [Prodrug 4, 14-[N-(Biotinyl)-12-aminododecanoxy]melampomagnolide B]
concentration at which a significant loss of phosphorylation of NF-κB p65 is observed [4]: 20 µM | concentration achieving efficient induction of cell death (primary leukemia cells): 20 to 30 µM | reduction of activity relative to 1 (primary leukemia cells; from viability and NF-κB phosphorylation analysis): approximately 2 fold | binding of IKK-β in pull-down (IKK-β; primary leukemia cells, 4 h incubation with 4, FIG. 5): one product identified was IKK-β
